# “Also recorded” adds a separate entry of the source. No end group written: not given here.
# Tests used:
# A375 cells = experiment: Monocyte adherence to tumor cells under flow conditions (FCS2 perfusion stage incubator); format: cell-based, human
# Protocol: Human peripheral blood monocytes, isolated by density centrifugation and adherence were labeled with the carbocyanine dye (DiI, C18; Molecular Probes, Eugene, Oreg.). They were passed across adherent soluble fibrin treated or untreated tumor cells at a shear force corresponding to that present in small blood capillaries for 1 h (FIGS. 7A and 7B).
# The number of tumor cells and adherent monocytes were counted in the images and leukocyte adherence was expressed as the number of leukocytes per tumor cell.
# Lyophilized murine anti-human monoclonal blocking antibodies directed against αLβ2 (clone 25.3) and CD54 (clone 84H10) were obtained from Beckman-Coulter (Miami, Fla.), as were purified immunoglobulin matched isotypic controls (IgG1 (mouse) Clone 679.1Mc7). Blocking monoclonal anti-£\M£]2 (clone ICRF44) was obtained from PharMingen (BD Biosciences, San Jose, Calif.). All antibody inhibition experiments were performed using pre-incubation of target cells with 5 μg antibody/106 cells. Experiments were performed in triplicate wells and the results were expressed as the mean+SD for three separate experiments).
# To simulate the fluid shear stresses present in vivo, coverslips containing Calcein AM labeled, adherent A375 were loaded into the FCS2 stage incubator (Bioptechs Inc., Butler, Pa.) and mounted on the stage of a Leica DMIRB inverted fluorescence microscope equipped with a Hamamatsu Color Chilled 3CCD camera (C5810 model) attached to a computer for data acquisition.
# The FCS2 incubator is a closed near-laminar flow, temperature-controlled perfusion chamber which facilitates direct observation and scanning of the cells on the coverslip during perfusion with solutions or cell suspensions. It was designed to maintain accurate thermal control and allow high-volume near-laminar flow perfusion. A fluid pathway was formed (Dimensions 0.5 mm×14 mm×25 mm) by separating the microaqueduct slide from the coverslip containing cells with a single silicone gasket with a rectangular bore, generating nearlaminar flow conditions during perfusion. The stage incubator was initially connected to a peristaltic pump on the afferent side using 0.062 inch bore S/P medical grade silicone tubing (Fisher Scientific, Suwanee, Ga.), with a three way in-line tap closed to the incubator inlet. The efferent side was connected to waste. After connection of the electronic temperature control, the coverslips were perfused with RPMI to briefly buffer the cells at 37° C. for fifteen minutes (flow rate of 0.5 ml/min). The inlet was then connected to the tube containing the appropriately treated monocyte suspension (3 mL). The efferent tubing was also connected to the same tube, and Di-I (Gant et al., 1992) labelled monocytes were recirculated across the tumor cells for 1 h, after which, the tubing was set up to the initial configuration and the cells were again washed with RPMI for 10 min to remove unbound monocytes.
# Individual still images in five randomly chosen fields of view were captured and stored on the computer. The number of monocytes (red) and tumor cells (green) were counted in each field of view and the mean monocyte/tumor cell ratio was calculated. The wall shear stress was calculated using the momentum balance for a Newtonian fluid. The viscosity of water at 37° C. was used as an approximation of the viscosity of the buffer used (RPMI 1640; 0.007 poise). As described in the following equation, the wall shear stress experienced by the monolayer is equal to: T=3 μQ/2a^2b, where T=wall shear stress, μ=coefficient of viscosity (0.007 Poise), Q=volumetric flow rate (0.0083 cm3/s), a=half channel height (0.025 cm), and b=channel width (1.5 cm). The wall shear rate is given by T/μ. […]
# fibrinogen = target: T1, fibrinogen (Homo sapiens, UniProt P02679); experiment: Thrombin induced clotting of purified fibrinogen; format: biochemical; conditions: fibrinogen 0.5 mg/ml, thrombin 0.125 U/ml, peptide 4 mmol/L, room temperature
# T1 construct: purchased American Diagnostica Inc., Greenwich, Conn
# T1 sequence (P02679 27-437 isoform P02679-2 limits assumed): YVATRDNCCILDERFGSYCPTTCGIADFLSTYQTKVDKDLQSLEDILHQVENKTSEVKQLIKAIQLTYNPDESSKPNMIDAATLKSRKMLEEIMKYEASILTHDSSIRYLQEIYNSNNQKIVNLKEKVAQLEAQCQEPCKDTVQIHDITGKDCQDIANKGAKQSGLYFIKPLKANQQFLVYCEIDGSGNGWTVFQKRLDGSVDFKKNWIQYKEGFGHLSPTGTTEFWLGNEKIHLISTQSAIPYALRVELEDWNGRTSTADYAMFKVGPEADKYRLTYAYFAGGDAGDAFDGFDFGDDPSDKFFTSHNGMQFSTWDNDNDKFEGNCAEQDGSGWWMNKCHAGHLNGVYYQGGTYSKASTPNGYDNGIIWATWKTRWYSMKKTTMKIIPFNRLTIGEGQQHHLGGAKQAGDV
# T1 sequence (P02671 20-629 partner limits assumed): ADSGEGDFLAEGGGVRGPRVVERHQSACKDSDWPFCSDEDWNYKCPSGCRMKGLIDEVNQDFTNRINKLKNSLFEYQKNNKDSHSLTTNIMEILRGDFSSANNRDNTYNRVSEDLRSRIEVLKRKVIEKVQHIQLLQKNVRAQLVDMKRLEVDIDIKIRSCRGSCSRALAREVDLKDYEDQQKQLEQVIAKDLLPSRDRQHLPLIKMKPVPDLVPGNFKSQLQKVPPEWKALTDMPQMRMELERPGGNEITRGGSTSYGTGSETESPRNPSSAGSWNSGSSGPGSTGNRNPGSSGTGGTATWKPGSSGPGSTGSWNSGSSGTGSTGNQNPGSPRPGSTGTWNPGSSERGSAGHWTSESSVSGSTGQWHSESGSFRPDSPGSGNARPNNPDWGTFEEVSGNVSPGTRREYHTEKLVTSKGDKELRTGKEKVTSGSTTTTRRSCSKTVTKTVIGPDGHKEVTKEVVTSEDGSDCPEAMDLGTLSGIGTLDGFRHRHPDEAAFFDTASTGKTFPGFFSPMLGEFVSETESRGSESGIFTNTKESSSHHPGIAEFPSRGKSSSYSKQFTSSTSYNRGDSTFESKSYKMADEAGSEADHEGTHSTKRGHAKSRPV
# T1 sequence (P02675 31-491 partner): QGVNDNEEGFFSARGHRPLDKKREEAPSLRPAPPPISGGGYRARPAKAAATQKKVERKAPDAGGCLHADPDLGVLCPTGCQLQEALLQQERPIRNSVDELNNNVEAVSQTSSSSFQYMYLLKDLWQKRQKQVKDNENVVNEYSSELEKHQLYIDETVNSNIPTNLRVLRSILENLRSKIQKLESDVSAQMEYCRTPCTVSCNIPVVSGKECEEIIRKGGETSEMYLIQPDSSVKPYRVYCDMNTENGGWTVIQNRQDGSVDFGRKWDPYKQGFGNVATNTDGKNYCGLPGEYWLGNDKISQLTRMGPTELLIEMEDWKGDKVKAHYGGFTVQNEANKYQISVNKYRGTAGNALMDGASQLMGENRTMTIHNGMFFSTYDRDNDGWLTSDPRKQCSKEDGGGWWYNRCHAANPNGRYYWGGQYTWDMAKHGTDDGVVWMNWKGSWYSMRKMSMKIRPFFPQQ
# Protocol: Experiments were performed to determine if the specific fibrin(ogen) adherence inhibitors also affected (1) fibrinogen clotting in the presence of thrombin, or (2) normal coagulation in recalcified plasma.
# Thrombin (0.625 μl (stock 100 U/ml) was added to RPMI 1640 medium containing 25 μl (stock 10 mg/ml) […] or in the presence of 4 mmol/L specific peptide or peptide combination in a total volume of 1 ml. The tubes were left at room temperature and clotting was determined by observed gelation of the solution every 30 s, and the approximate clotting time was recorded. An additional control was also tested in which the fibrin polymerization inhibitor GPRP-NH2 was added to fibrinogen in the presence of P1-P4 prior to thrombin addition. The tube was left at room temperature to determine if clotting was observed.
# [1] = sFn treated with single peptide, incubated with one cell type (P3 tumor cells / P4 monocytes), other cell type untreated
# [2] = one cell type treated with peptide only (P1 tumor cells / P2 monocytes), the other cell type with sFn
# [3] = one cell type treated with single peptide then sFn (P1 A375 / P2 monocytes), other cell type with sFn (Bars 4, 5)
# [4] = effector and tumor cells both pre-treated with single component of the sFn mixture
substance,measurement,setting,value
Gly-Pro-Arg-Pro-amide (GPRP-NH2) [reference compound],effect on monocyte adherence,"A375 cells; effector and tumor cells both pre-treated with single component of the sFn mixture, listed as GPRP",did not significantly inhibit adherence
same,effect on monocyte adherence,"A375 cells; effector and tumor cells both pre-treated with single component of the sFn mixture, listed as GPRPNH2",no significant (P>0.05 compared to untreated cell adherence) inhibition was observed
same,clotting time,fibrinogen,> 15 min
KVILPRGGSVLVTC (CHAIN peptide comprising amino acids 8-21 on the ICAM-1 first immunoglobulin domain) [Peptide P3],inhibition of monocyte adherence,A375 cells; [1],little or no inhibition was observed
NNQKIVNLKEKVAQLEA (CHAIN peptide comprising the cell-binding domain in soluble fibin.) [Peptide P1],effect on monocyte adherence,A375 cells; [2],Inhibition was still observed; also recorded: inhibited adherence to a similar level to that of sFn treatment of both cells
same,inhibition of monocyte adherence,A375 cells; [3],inhibition was still observed
fibrinogen [reference compound],effect on monocyte adherence,A375 cells; [4],no significant (P>0.05 compared to untreated cell adherence) inhibition was observed; also recorded: did not significantly inhibit adherence
KFGDPLGYEDVIPEADREG (CHAIN peptide comprising the soluble fibrin protein-binding domain in soluble fibin) [Peptide P4],inhibition of monocyte adherence,"A375 cells; sFn pre-treated with P4 and incubated with monocytes, tumor cells incubated with sFn (Bar 7)",no inhibition was observed
same,inhibition of monocyte adherence,A375 cells; [1],no inhibition was observed
thrombin [reference compound],effect on monocyte adherence,A375 cells; [4],no significant (P>0.05 compared to untreated cell adherence) inhibition was observed; also recorded: did not significantly inhibit adherence
YKSMKKTTMKIIPFNRLTIF (CHAIN peptide comprising the cell-binding domain in soluble fibin.) [Peptide P2],effect on monocyte adherence,A375 cells; [2],Inhibition was also observed; also recorded: inhibited adherence to a similar level to that of sFn treatment of both cells
same,inhibition of monocyte adherence,A375 cells; [3],inhibition was still observed
